Results from US11472805B2, “Tricyclic compounds and their use as phosphodiesterase inhibitors” (Pfizer Inc., priority 2015, dated 2022).
Where two headings read alike, the source gives them in different places.

Columns and labels:
Assay type in all cases: biochemical
Human PDE4A3 = Human PDE4A3 (Homo sapiens (Human), UniProt P27815); test: PDE4A3 Scintillation Proximity Assay (SPA), inhibition of enzyme activity; conditions: read-out: Human PDE4A FL
Procedure, shortened: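 Recombinant human PDE4A3 expressed in insect cells, purified via Ni-NTA, anti-FLAG and size exclusion. SPA run 30 min at 25 °C in 50 mM Tris pH 7.5, 1.3 mM MgCl2, 0.01% Brij with 1 μM cAMP (20 nM 3H-cAMP), […], ~20% substrate conversion; stopped with yttrium silicate beads.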

Human PDE4B1 = Human PDE4B1 (Homo sapiens (Human), UniProt Q07343, S133E/S654A/S659A/S661A); test: PDE4B1 Scintillation Proximity Assay (SPA), inhibition of enzyme activity; conditions: read-out: Human PDE4B FL
Procedure, shortened: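 His-tagged enzyme from baculovirus-infected insect cells, Ni-NTA purified. SPA with 1 μM cAMP (20 nM 3H-cAMP tracer) in 50 mM Tris pH 7.5, 1.3 mM MgCl2, 0.01% Brij, […] PDE4B enzyme for ~20% substrate conversion; 30 min at 25 °C, stopped with yttrium silicate beads, read after 8 h settling.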

Human PDE4C1 = Human PDE4C1 (Homo sapiens (Human), UniProt Q08493); test: PDE4C1 Scintillation Proximity Assay (SPA), inhibition of enzyme activity; conditions: read-out: Human PDE4C FL
Procedure, shortened: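 Recombinant insect-cell-expressed human PDE4C1 […] in 50 mM Tris pH 7.5, 1.3 mM MgCl2, 0.01% Brij with 1 μM cAMP (3H-cAMP tracer), ~20% substrate conversion, inhibitor concentration range. Incubated 30 min at 25° C; stopped with yttrium silicate SPA beads, read by scintillation after 8 h settling.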

human PDE4D3 = human PDE4D3 (Homo sapiens (Human), UniProt Q08499); test: PDE4D3 Scintillation Proximity Assay (SPA), inhibition of enzyme activity; conditions: read-out: Human PDE4D FL
Procedure, shortened: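 His-tagged human PDE4D3 (aa 50–672), expressed in insect cells, hydrolysed 1 μM cAMP (3H tracer plus cold) for 30 min at 25° C in 50 mM Tris pH 7.5, 1.3 mM MgCl2 and 0.01% Brij. Enzyme level was set for ~20% conversion. Product was read by yttrium silicate SPA beads after 8 h settling.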

[1] = Table 9, geometric mean of 2-9 determinations unless otherwise indicated
[2] = Table 10, geometric mean of 2-9 determinations unless otherwise indicated

Chain of Human PDE4B1 (Q07343 122-736 S133E/S654A/S659A/S661A): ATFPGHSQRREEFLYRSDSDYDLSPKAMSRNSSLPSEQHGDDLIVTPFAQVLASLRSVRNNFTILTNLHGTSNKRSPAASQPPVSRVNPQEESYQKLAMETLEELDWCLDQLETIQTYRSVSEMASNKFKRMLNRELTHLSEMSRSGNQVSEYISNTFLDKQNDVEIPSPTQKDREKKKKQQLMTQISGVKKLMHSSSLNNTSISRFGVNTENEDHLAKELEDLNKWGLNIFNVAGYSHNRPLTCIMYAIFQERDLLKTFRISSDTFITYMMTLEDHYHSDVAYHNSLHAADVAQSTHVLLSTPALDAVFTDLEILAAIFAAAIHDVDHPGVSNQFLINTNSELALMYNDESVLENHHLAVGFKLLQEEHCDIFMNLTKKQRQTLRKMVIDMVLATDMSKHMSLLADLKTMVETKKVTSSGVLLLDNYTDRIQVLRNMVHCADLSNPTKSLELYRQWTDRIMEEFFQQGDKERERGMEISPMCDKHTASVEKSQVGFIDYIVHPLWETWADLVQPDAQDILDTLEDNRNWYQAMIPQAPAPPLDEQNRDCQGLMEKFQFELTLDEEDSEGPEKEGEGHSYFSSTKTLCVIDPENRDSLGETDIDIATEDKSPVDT
Chain of Human PDE4C1 (Q08493 2-712): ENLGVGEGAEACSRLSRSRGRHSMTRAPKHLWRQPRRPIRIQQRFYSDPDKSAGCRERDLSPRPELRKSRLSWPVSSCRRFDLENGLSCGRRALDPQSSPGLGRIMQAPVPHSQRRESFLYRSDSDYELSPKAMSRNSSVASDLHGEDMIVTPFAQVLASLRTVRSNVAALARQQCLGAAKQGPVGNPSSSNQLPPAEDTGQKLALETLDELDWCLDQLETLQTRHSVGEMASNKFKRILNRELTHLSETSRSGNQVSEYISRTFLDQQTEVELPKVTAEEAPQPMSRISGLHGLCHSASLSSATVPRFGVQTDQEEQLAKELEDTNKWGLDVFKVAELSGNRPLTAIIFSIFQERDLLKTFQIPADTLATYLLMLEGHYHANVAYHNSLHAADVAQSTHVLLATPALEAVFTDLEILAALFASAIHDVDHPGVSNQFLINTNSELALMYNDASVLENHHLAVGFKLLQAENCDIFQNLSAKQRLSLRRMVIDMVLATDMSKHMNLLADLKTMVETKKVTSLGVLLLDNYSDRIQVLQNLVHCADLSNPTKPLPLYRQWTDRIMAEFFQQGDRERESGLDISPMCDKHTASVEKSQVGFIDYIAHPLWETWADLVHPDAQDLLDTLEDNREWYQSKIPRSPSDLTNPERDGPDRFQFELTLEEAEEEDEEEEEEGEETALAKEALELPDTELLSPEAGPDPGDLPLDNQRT
Chain of Human PDE4A3 (P27815 other isoform, or with tags, fused parts or gaps): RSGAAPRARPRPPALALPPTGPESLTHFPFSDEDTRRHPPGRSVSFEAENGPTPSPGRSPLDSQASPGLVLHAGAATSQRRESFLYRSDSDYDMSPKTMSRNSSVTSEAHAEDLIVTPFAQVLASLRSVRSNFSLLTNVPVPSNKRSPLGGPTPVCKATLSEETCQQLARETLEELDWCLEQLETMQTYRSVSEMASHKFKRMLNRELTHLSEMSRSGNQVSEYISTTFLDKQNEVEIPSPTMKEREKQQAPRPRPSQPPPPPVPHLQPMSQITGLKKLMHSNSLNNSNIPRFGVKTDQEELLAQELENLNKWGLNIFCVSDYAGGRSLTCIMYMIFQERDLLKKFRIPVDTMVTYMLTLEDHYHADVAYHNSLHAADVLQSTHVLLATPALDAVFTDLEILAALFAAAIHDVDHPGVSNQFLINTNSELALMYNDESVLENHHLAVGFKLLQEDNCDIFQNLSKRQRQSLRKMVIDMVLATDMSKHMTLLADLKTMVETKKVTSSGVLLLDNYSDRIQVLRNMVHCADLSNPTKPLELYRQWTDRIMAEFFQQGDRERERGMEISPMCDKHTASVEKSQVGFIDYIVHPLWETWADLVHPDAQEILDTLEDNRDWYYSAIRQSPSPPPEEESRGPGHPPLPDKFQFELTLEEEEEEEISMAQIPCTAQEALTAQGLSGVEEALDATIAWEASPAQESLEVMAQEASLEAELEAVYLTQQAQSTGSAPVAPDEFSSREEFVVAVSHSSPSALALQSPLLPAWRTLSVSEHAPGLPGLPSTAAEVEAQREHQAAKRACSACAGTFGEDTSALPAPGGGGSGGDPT
Chain of human PDE4D3 (Q08499 186-808): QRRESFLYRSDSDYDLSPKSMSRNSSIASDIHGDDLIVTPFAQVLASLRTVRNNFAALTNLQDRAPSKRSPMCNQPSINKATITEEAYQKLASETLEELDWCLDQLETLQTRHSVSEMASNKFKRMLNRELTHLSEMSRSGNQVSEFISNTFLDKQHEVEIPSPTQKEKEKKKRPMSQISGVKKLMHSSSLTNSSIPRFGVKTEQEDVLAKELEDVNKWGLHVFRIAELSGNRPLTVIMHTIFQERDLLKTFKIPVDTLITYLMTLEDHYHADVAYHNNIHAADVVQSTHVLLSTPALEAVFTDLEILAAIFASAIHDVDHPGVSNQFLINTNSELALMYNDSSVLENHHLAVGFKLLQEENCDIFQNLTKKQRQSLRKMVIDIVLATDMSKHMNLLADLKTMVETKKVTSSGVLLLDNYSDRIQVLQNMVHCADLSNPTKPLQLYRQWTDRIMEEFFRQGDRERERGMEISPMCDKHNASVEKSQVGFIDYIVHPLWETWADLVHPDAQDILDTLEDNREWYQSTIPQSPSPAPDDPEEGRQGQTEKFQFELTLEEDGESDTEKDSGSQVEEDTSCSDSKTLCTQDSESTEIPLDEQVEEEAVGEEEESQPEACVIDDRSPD

Row | IC50 (Human PDE4A3; [1]) | IC50 (Human PDE4B1; [1]) | IC50 (Human PDE4C1; [1]) | IC50 (human PDE4D3; [1]) | IC50 (Human PDE4A3; [2]) | IC50 (Human PDE4B1; [2]) | IC50 (Human PDE4C1; [2]) | IC50 (human PDE4D3; [2]) | Compound
1 | 0.98 nM | < 0.64 nM | 2.88 nM | 23.3 nM |  |  |  |  | N#Cc1cc(-c2c3n(c4cccnc24)CCN(C2CC2)C3=O)ccc1Cl [Example 34, 2-Chloro-5-(8-cyclopropyl-9-oxo-6,7,8,9-tetrahydropyrido[2′,3′:4,5]pyrrolo[1,2-a]pyrazin-10-yl)benzonitrile]
2 | < 0.45 nM | < 0.7 nM | 1.44 nM | 9.07 nM |  |  |  |  | O=C1c2c(-c3ccc(Cl)c(F)c3)c3ncccc3n2CCN1C1CC1 [Example 32, 10-(4-Chloro-3-fluorophenyl)-8-cyclopropyl-7,8-dihydropyrido[2′,3′:4,5]pyrrolo[1,2-a]pyrazin-9(6H)-one]
3 |  |  |  |  | 11100 nM | 18500 nM | 4820 nM | > 30000 nM | Cc1csc(-c2c3n(c4cccnc24)CCN(C2CC2)C3=O)n1 [Example 82, 8-Cyclopropyl-10-(4-methylthiazol-2-yl)-7,8-dihydropyrido[2′,3′:4,5]pyrrolo[1,2-a]pyrazin-9(6H)-one]
4 | 19 nM | 27 nM | 52 nM | 660 nM |  |  |  |  | O=C1c2c(-c3ccc(Cl)c(F)c3)c3ncccc3n2CCN1c1ncccn1 [Example 74, 10-(4-Chloro-3-fluorophenyl)-8-(pyrimidin-2-yl)-7,8-dihydropyrido[2′,3′:4,5]pyrrolo[1,2-a]pyrazin-9(6H)-one]
5 | 2.29 nM | 4.04 nM | 6.98 nM | 203 nM |  |  |  |  | O=C1c2c(-c3cc(F)ccc3F)c3ncccc3n2CCN1C1CC1 [Example 46, 8-Cyclopropyl-10-(2,5-difluorophenyl)-7,8-dihydropyrido[2′,3′:4,5]pyrrolo[1,2-a]pyrazin-9(6H)-one]
6 | 3.92 nM | 2.14 nM | 21 nM | 85.7 nM |  |  |  |  | Cc1cc(C#N)c(F)cc1-c1c2n(c3scnc13)CCN(C1CC1)C2=O [Example 28, 4-(7-Cyclopropyl-8-oxo-5,6,7,8-tetrahydro[1,3]thiazolo[4′,5′:4,5]pyrrolo[1,2-a]pyrazin-9-yl)-2-fluoro-5-methylbenzonitrile]
7 | 11.8 nM | 11.2 nM | 99 nM | 397 nM |  |  |  |  | Cc1ccc(C#N)cc1-c1c2n(c3cccnc13)CCN(C1CC1)C2=O [Example 60, 3-(8-Cyclopropyl-9-oxo-6,7,8,9-tetrahydropyrido[2′,3′:4,5]pyrrolo[1,2-a]pyrazin-10-yl)-4-methylbenzonitrile]
8 | 5.42 nM | 6.87 nM | 16.7 nM | 460 nM |  |  |  |  | Cc1ccc(-c2c3ncccc3n3ccn(C4CC4)c(=O)c23)c(C)c1 [Example 66, 8-Cyclopropyl-10-(2,4-dimethyl-phenyl)pyrido[2′,3′:4,5]pyrrolo[1,2-a]pyrazin-9(8H)-one]
9 | 2.52 nM | 3.76 nM | 3.3 nM | 98.7 nM |  |  |  |  | Cc1cc(-c2c3n(c4cccnc24)CCN(C2CC2)C3=O)ccc1F [Example 37, 8-Cyclopropyl-10-(4-fluoro-3-methylphenyl)-7,8-dihydropyrido[2′,3′:4,5]pyrrolo[1,2-a]pyrazin-9(6H)-one]
10 |  |  |  |  | 44 nM | 66.2 nM | 106 nM | 42.8 nM | CCNC(=O)N1CCn2c(c(-c3ccc(Cl)cc3)c3ncccc32)C1=O [Example 80, 10-(4-Chlorophenyl)-N-ethyl-9-oxo-6,7-dihydropyrido[2′,3′:4,5]pyrrolo[1,2-a]pyrazine-8(9H)-carboxamide]
11 | 26 nM | 18.5 nM | 26 nM | 538 nM |  |  |  |  | O=C1c2c(-c3ccc(Cl)cc3)c3ncccc3n2CC2CCN12 (single isomer, unassigned) [Example 68]
12 | 1.19 nM | < 1.27 nM | 13.9 nM | 88.5 nM |  |  |  |  | O=C1c2c(-c3ccc(Cl)c(F)c3)c3nccnc3n2CCN1C1CC1 [Example 8, 10-(4-Chloro-3-fluorophenyl)-8-cyclopropyl-7,8-dihydropyrrolo[1,2-a:4,5-b′]dipyrazin-9(6H)-one]
13 | 2.52 nM | 4.88 nM | 11.5 nM | 465 nM |  |  |  |  | Cc1ccc(-c2c3n(c4cccnc24)CCN(C2CC2)C3=O)cc1 [Example 20, 8-Cyclopropyl-10-(4-methylphenyl)-7,8-dihydropyrido[2′,3′:4,5]pyrrolo[1,2-a]pyrazin-9(6H)-one]
14 |  |  |  |  | 889 nM | 2760 nM | 2360 nM | 4450 nM | Cn1cc(-c2c3n(c4cccnc24)CCN(C2CC2)C3=O)cn1 [Example 91, 8-Cyclopropyl-10-(1-methyl-1H-pyrazol-4-yl)-7,8-dihydropyrido[2′,3′:4,5]pyrrolo[1,2-a]pyrazin-9(6H)-one]
15 | 21.2 nM | 54.6 nM | 35.8 nM | 3770 nM |  |  |  |  | COc1ccc(-c2c3n(c4cccnc24)CCN(C2CC2)C3=O)c(F)c1 [Example 54, 8-Cyclopropyl-10-(2-fluoro-4-methoxyphenyl)-7,8-dihydropyrido[2′,3′:4,5]pyrrolo[1,2-a]pyrazin-9(6H)-one]
16 |  |  |  |  | 87.5 nM | 98.4 nM | 52.8 nM | 137 nM | COCCCCCCN1CCn2c(c(-c3ccc(Cl)cc3)c3ncccc32)C1=O [Example 96, 10-(4-Chlorophenyl)-8-(6-methoxyhexyl)-7,8-dihydropyrido[2′,3′:4,5]pyrrolo[1,2-a]pyrazin-9(6H)-one]
17 | 8.87 nM | 16.3 nM | 24.3 nM | 689 nM |  |  |  |  | O=C1c2c(-c3ccc(Cl)cc3)c3ncccc3n2CC2CCN12 (single isomer, unassigned) [Example 69]
18 | 8.15 nM | 2.98 nM | 14.8 nM | 138 nM |  |  |  |  | N#Cc1ccc(-c2c3n(c4cccnc24)CCN(C2CC2)C3=O)cn1 [Example 26, 5-(8-Cyclopropyl-9-oxo-6,7,8,9-tetrahydropyrido[2′,3′:4,5]pyrrolo[1,2-a]pyrazin-10-yl)pyridine-2-carbonitrile]
19 | 1.57 nM | 1.78 nM | 15.2 nM | 45.5 nM |  |  |  |  | Cc1cc(C#N)c(F)cc1-c1c2c(n3c1C(=O)N(C1CC1)CC3)CCCO2 [Example 16, 4-(8-Cyclopropyl-9-oxo-3,4,6,7,8,9-hexahydro-2H-pyrano[2′,3′:4,5]pyrrolo[1,2-a]pyrazin-10-yl)-2-fluoro-5-methylbenzonitrile]
20 | 2.28 nM | 3.04 nM | 9.03 nM | 434 nM |  |  |  |  | O=C1c2c(-c3ccc(Cl)cc3)c3ncsc3n2CCN1C1CC1 [Example 27, 9-(4-Chlorophenyl)-7-cyclopropyl-6,7-dihydro[1,3]thiazolo[4′,5′:4,5]pyrrolo[1,2-a]pyrazin-8(5H)-one]
21 |  |  |  |  | 254 nM | 437 nM | 4960 nM | 724 nM | CN(C)S(=O)(=O)c1cccc(-c2c3n(c4cccnc24)CCN(C2CC2)C3=O)c1 [Example 85, 3-(8-Cyclopropyl-9-oxo-6,7,8,9-tetrahydropyrido[2′,3′:4,5]pyrrolo[1,2-a]pyrazin-10-yl)-N,N-dimethylbenzenesulfonamide]
22 | 8.6 nM | 75.9 nM | 132 nM | 4340 nM |  |  |  |  | Cc1ncc(-c2c3n(c4cccnc24)CCN(C2CC2)C3=O)cn1 [Example 21, 8-Cyclopropyl-10-(2-methylpyrimidin-5-yl)-7,8-dihydropyrido[2′,3′:4,5]pyrrolo[1,2-a]pyrazin-9(6H)-one]
23 | 35.1 nM | 39 nM | 60.3 nM | 1640 nM |  |  |  |  | N#Cc1ccc(-c2c3n(c4cccnc24)CC2CCCN2C3=O)cc1 (stereo not shown) [Example 61, 4-(11-Oxo-6a,7,8,9-tetrahydro-6H,11H-pyrido[2′,3′:4,5]pyrrolo[1,2-a]pyrrolo[1,2-d]pyrazin-12-yl)benzonitrile]
24 |  |  |  |  | 720 nM | 467 nM | 1050 nM | 858 nM | CS(=O)(=O)c1cccc(-c2c3n(c4cccnc24)CCN(C2CC2)C3=O)c1 [Example 94, 8-Cyclopropyl-10-(3-(methylsulfonyl)phenyl)-7,8-dihydropyrido[2′,3′:4,5]pyrrolo[1,2-a]pyrazin-9(6H)-one]
25 | 14.3 nM | 2.53 nM | 71.4 nM | 159 nM |  |  |  |  | O=C1c2c(-c3ccc(Cl)c(F)c3)c3ncncc3n2CCN1C1CC1 [Example 7, 10-(4-Chloro-3-fluorophenyl)-8-cyclopropyl-7,8-dihydropyrazino[1′,2′: 1,5]pyrrolo[3,2-d]pyrimidin-9(6H)-one]
